# Results published in patent publication US20260191793A1, “HBV SPECIFIC EXOSOMES AND USES THEREOF” (priority 2022, published 2026).
# “Also recorded” adds a separate entry of the source.
# Tested on: HBV DNA
# Experiment: Mismatch sensitive T7 endonuclease 1 (T7E1) assay in HepDE19 cells
# Assay type: cell-based, Hepatitis B virus (HBV)
# Settings: HepDE19 cells transfected for 3 days, T7E1 digestion of PCR products
# Excerpt: DNA cleavage by CRISPR/Cas9 results in double-strand breaks (DSBs), which are repaired primarily by the non-homologous end-joining (NHEJ) pathway, resulting in indel mutations and transcriptionally active episomal variants. Thus, detecting DNA cleavage and indel mutations following CRISPR/Cas9-mediated DNA damage and repair is important for confirming its gene-editing effects. To validate the capability of the synthetic gRNA/Cas9 RNPs to introduce indel mutation and cleavage in HBV DNA in HepDE19 cells, a mismatch sensitive T7 endonuclease (T7E1) assay-was performed, following transfection of HepDE19 cells with gRNA5, gRNA9, gRNA5+gRNA9, or gRNAc RNPs. This assay allows for the detection of specific cleavage sites or indel mutations in the target gene (HBV DNA) in the treated cells. The indel mutagenesis was determined based on the DNA fragments detected after the gRNA/Cas9-mediated cleavage of the HBV DNA following T7E1 digestion of the specific PCR products.
# The HBV DNA sequences surrounding gRNA-binding sites were amplified by PCR. […]
# DNA cleavage by CRISPR/Cas9 results in double-strand breaks (DSBs), which are primarily repaired by the non-homologous end joining (NHEJ) repair pathway, resulting in gene mutations. […] The mutagenesis was determined based on the DNA fragments detected after the gRNA/Cas9-mediated cleavage of the HBV DNA following T7E1 digestion.
sequence,measurement,value
GGTCTCCATGCGACGTGCAGNGG [gRNA9],cleaved products / DSBs in HBV DNA after T7E1 treatment,cleaved products were observed; also recorded: DSBs were introduced
"GTTATCGCTGGATGTGTCTGNGG (guide GUUAUCGCUGGAUGUGUCUGNGG; complexed with Cas9 protein, chemistry not fully specified) [gRNA5, tested as synthetic gRNA/Cas9 RNP]",cleaved products / DSBs in HBV DNA after T7E1 treatment,cleaved products were observed; also recorded: DSBs were introduced
